Data from PubChem BioAssay (NCI).
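Assay format: 96-well plates, 48-hour exposure. GI50 is the concentration that inhibits growth by half. TGI marks complete inhibition of growth.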

Tests used:
Assay in all cases: inhibition of tumour cell growth, NCI panel, 48 h
U251 CNS = tested on: U251 CNS
ACHN renal = tested on: ACHN renal
CAKI-1 renal = tested on: CAKI-1 renal
UO-31 renal = tested on: UO-31 renal
SK-MEL-5 melanoma = tested on: SK-MEL-5 melanoma
RXF 393 renal = tested on: RXF 393 renal
K-562 leukemia = tested on: K-562 leukemia
NCI-H23 lung = tested on: NCI-H23 lung
HCC-2998 colon = tested on: HCC-2998 colon
SK-OV-3 ovarian = tested on: SK-OV-3 ovarian
MCF7 breast = tested on: MCF7 breast
MOLT-4 leukemia = tested on: MOLT-4 leukemia
MDA-MB-468 breast = tested on: MDA-MB-468 breast
TK-10 renal = tested on: TK-10 renal
IGROV1 ovarian = tested on: IGROV1 ovarian
SK-MEL-28 melanoma = tested on: SK-MEL-28 melanoma
OVCAR-5 ovarian = tested on: OVCAR-5 ovarian
NCI-H460 lung = tested on: NCI-H460 lung
SN12C renal = tested on: SN12C renal
HOP-92 NSCLC = tested on: HOP-92 NSCLC
786-0 renal = tested on: 786-0 renal
LOX IMVI melanoma = tested on: LOX IMVI melanoma
T-47D breast = tested on: T-47D breast
OVCAR-4 ovarian = tested on: OVCAR-4 ovarian
SF-539 CNS = tested on: SF-539 CNS
CCRF-CEM leukemia = tested on: CCRF-CEM leukemia
HL-60(TB) leukemia = tested on: HL-60(TB) leukemia
UACC-62 melanoma = tested on: UACC-62 melanoma
PC-3 prostate = tested on: PC-3 prostate
MDA-MB-435 = tested on: MDA-MB-435
SF-295 CNS = tested on: SF-295 CNS
MDA-MB-231 breast = tested on: MDA-MB-231 breast
SK-MEL-2 melanoma = tested on: SK-MEL-2 melanoma
NCI-H226 lung = tested on: NCI-H226 lung
SF-268 CNS = tested on: SF-268 CNS
OVCAR-3 ovarian = tested on: OVCAR-3 ovarian
A498 renal = tested on: A498 renal
M14 melanoma = tested on: M14 melanoma
EKVX NSCLC = tested on: EKVX NSCLC
SW-620 colon = tested on: SW-620 colon
MALME-3M melanoma = tested on: MALME-3M melanoma
HT29 colon = tested on: HT29 colon
SR leukemia = tested on: SR leukemia
OVCAR-8 ovarian = tested on: OVCAR-8 ovarian
SNB-75 CNS = tested on: SNB-75 CNS
RPMI-8226 leukemia = tested on: RPMI-8226 leukemia
COLO 205 colon = tested on: COLO 205 colon
NCI-H522 lung = tested on: NCI-H522 lung
A549 NSCLC = tested on: A549 NSCLC
HOP-62 NSCLC = tested on: HOP-62 NSCLC
HCT-15 colon = tested on: HCT-15 colon
UACC-257 melanoma = tested on: UACC-257 melanoma
SNB-19 CNS = tested on: SNB-19 CNS
DU-145 prostate = tested on: DU-145 prostate

## C=C1CC[C@@H]2[C@]3(C)COC(c4cn(-c5ccccc5)nc4-c4cccc([N+](=O)[O-])c4)O[C@@H]3CC[C@@]2(C)[C@@H]1C/C=C1/C(=O)OC[C@H]1O (some centres not stated)
U251 CNS
  GI50: 1.74 µM
  TGI: 3.35 µM
ACHN renal
  GI50: 1.89 µM
  TGI: 3.62 µM
CAKI-1 renal
  GI50: 2.81 µM
  TGI: > 100 µM
UO-31 renal
  GI50: 1.82 µM
  TGI: 5.46 µM
SK-MEL-5 melanoma
  GI50: 1.63 µM
  TGI: 3 µM
RXF 393 renal
  GI50: 1.62 µM
  TGI: 3.2 µM
K-562 leukemia
  GI50: 2.16 µM
  TGI: > 100 µM
NCI-H23 lung
  GI50: 1.83 µM
  TGI: 3.55 µM
HCC-2998 colon
  GI50: 1.92 µM
  TGI: 3.53 µM
SK-OV-3 ovarian
  GI50: 29.8 µM
  TGI: > 100 µM
MCF7 breast
  GI50: 2.64 µM
  TGI: > 100 µM
MOLT-4 leukemia
  GI50: 2.87 µM
  TGI: > 100 µM
MDA-MB-468 breast
  GI50: 1.76 µM
  TGI: 3.52 µM
TK-10 renal
  GI50: 2.22 µM
  TGI: 5.82 µM
IGROV1 ovarian
  GI50: 2.08 µM
  TGI: 4.27 µM
SK-MEL-28 melanoma
  GI50: 2.04 µM
  TGI: 4.06 µM
OVCAR-5 ovarian
  GI50: 2.06 µM
  TGI: 5.05 µM
NCI-H460 lung
  GI50: 2.27 µM
  TGI: 4.8 µM
SN12C renal
  GI50: 2.93 µM
  TGI: 10.3 µM
HOP-92 NSCLC
  GI50: 1.86 µM
  TGI: 3.64 µM
786-0 renal
  GI50: 3.04 µM
  TGI: 10.3 µM
LOX IMVI melanoma
  GI50: 1.72 µM
  TGI: 3.34 µM
T-47D breast
  GI50: 1.76 µM
  TGI: 5.02 µM
OVCAR-4 ovarian
  GI50: 4.05 µM
  TGI: > 100 µM
SF-539 CNS
  GI50: 1.74 µM
  TGI: 3.18 µM
CCRF-CEM leukemia
  GI50: 1.14 µM
  TGI: 5.01 µM
HL-60(TB) leukemia
  GI50: 1.73 µM
  TGI: > 100 µM
UACC-62 melanoma
  GI50: 1.69 µM
  TGI: 3.46 µM
PC-3 prostate
  GI50: 2.75 µM
  TGI: 9.04 µM
MDA-MB-435
  GI50: 3.03 µM
  TGI: 18.3 µM
SF-295 CNS
  GI50: 1.68 µM
  TGI: 3.19 µM
MDA-MB-231 breast
  GI50: 1.84 µM
  TGI: 3.44 µM
SK-MEL-2 melanoma
  GI50: 1.78 µM
  TGI: 3.51 µM
NCI-H226 lung
  GI50: 2.38 µM
  TGI: 6.59 µM
SF-268 CNS
  GI50: 7.65 µM
  TGI: > 100 µM
OVCAR-3 ovarian
  GI50: 1.87 µM
  TGI: 3.75 µM
A498 renal
  GI50: 18.9 µM
  TGI: 45.4 µM
M14 melanoma
  GI50: 2.08 µM
  TGI: 4.52 µM
EKVX NSCLC
  GI50: 2.75 µM
  TGI: 7.98 µM
SW-620 colon
  GI50: 2.21 µM
  TGI: 5.13 µM
MALME-3M melanoma
  GI50: 1.78 µM
  TGI: 3.55 µM
HT29 colon
  GI50: 1.82 µM
  TGI: 4.26 µM
SR leukemia
  GI50: 3.46 µM
  TGI: > 100 µM
OVCAR-8 ovarian
  GI50: 1.9 µM
  TGI: 5.04 µM
SNB-75 CNS
  GI50: 7.34 µM
  TGI: 50.1 µM
RPMI-8226 leukemia
  GI50: 2.45 µM
  TGI: > 100 µM
COLO 205 colon
  GI50: 2.41 µM
  TGI: 5.06 µM
NCI-H522 lung
  GI50: 1.75 µM
  TGI: 3.41 µM
A549 NSCLC
  GI50: 3.62 µM
  TGI: > 100 µM
HOP-62 NSCLC
  GI50: 3.15 µM
  TGI: 12.4 µM
HCT-15 colon
  GI50: 1.74 µM
  TGI: 3.58 µM
UACC-257 melanoma
  GI50: 1.8 µM
  TGI: 3.68 µM
SNB-19 CNS
  GI50: 3.65 µM
  TGI: 15 µM
DU-145 prostate
  GI50: 4.11 µM
  TGI: 24.3 µM

## O=C(NNc1nc2cc(F)ccc2n2c(CN3CCCC3)ccc12)c1cnccn1
MDA-MB-468 breast
  GI50: 1.6 µM
  TGI: 6.9 µM

## CCSCC1CC(O)(c2ccccc2)C(c2ccccc2)C(c2ccc(Cl)cc2)O1 (configuration not stated)
MDA-MB-468 breast
  GI50: 1.7 µM
  TGI: 3.55 µM
